SMILES strings stand for the structures.

Assay [1] deals with NIH/3T3 cells. In words: Analysis of mitosis, NIH/3T3 centrin-GFP H2B-RFP. Format: cell-based, mouse. To be noted: centrosome-less NIH/3T3 cells. The method, then:
(§1) Analysis of mitosis and daughter cell fate. […] Cells were seeded into 96-well cycloolefin plates at 5000 cells/well, 8-10 hours before imaging. Movies were acquired on the CV1000 with a 40×0.95 NA U-PlanApo objective. The imaging chamber was maintained at 37° C. and 5% CO2. Image acquisition and data analysis were performed using CellVoyager software. 20 fields/well were imaged. For HeLa and NIH/3T3 cells, 5×2 μm z-sections in the GFP (25% power, 125 ms, 30% gain) and RFP (25% power, 100 ms, 30% gain) channels were captured in each field, at 5-minute intervals for 24 hours. For RPE1 cells, 5×2 μm z-sections in the GFP (20% power, 100 ms, 30% gain) and RFP (25% power, 100 ms, 30% gain) channels were captured in each field, at 5-minute intervals for 8 hours. To track RPE1 daughter cell fate, imaging was then switched to 3×4 μm z-sections in the RFP channel only, at 10-minute intervals for 48 hours. Mitosis was measured from nuclear envelope breakdown to anaphase onset (or arrest). Results represent combined measurements of 100 mother cells per condition from 2-4 independent experiments.

Assay [2] has as its system HeLa cells. Description: Quantification of centrosome numbers from fixed samples, HeLa. Format: cell-based, human. To be noted: for foci of centriolar and pericentriolar material markers: centrinone treatment. The method, then:
Quantification of centrosome numbers from fixed samples. Cells were seeded onto poly-D-lysine-coated coverslips (Neuvitro) in 12-well plates at least 8 hours before fixation. At the required timepoints for each experiment, cells were washed once with PBS and fixed in 100% methanol (−20° C., 5 minutes). Fixed cells were washed with PBS, blocked with PBS+4% BSA+0.1% Triton X-100, and stained with primary antibodies against γ-tubulin and Cep192, which localize to the pericentriolar material and proximal to the outer centriole wall, respectively (47, 48). Alexa488-labeled anti-mouse secondary antibody (against anti-γ-tubulin) and Alexa647-labeled anti-rabbit secondary antibody (against anti-Cep192) were both used at 1.5 jag/mL. Samples were mounted onto slides with Prolong Gold antifade reagent (Life Technologies). Images of fixed interphase cells were acquired on a Nikon Eclipse E800 with a 60×1.4 NA PlanApo objective and ORCA-ER camera (Hamamatsu) using Metamorph software (Molecular Devices). Quantification of foci was performed manually. A focus was defined as a bona-fide centrosome if it was positive for both γ-tubulin and Cep192 (true for >95% of foci).

Assay [3] concerns RPE1 Plk4 G95L cells. Description: Centrosome number and passaging assay, RPE1 Plk4 G95L knock-in. To be noted: RPE1, both PLK4 alleles G95L. Format: cell-based, human. From the text:
For generation of RPE1 cells with a Plk4(G95L) knock-in, we targeted the intronic region between exons 4 and 5 of the Plk4 locus with a gRNA sequence ([…], SEQ ID NO: 1) cloned into pX458 (a gift from Feng Zhang; Addgene plasmid #48138; 44). A repair template was cloned to introduce the G95L point mutation, as well as a neomycin resistance cassette within the intronic region (see FIG. 15). RPE1 cells were transfected with the Cas9/gRNA plasmid, then transduced with adeno-associated virus coding for the repair template using previously described methods (45). Cells were selected in 96-well plates for 2 weeks using 0.5 mg/ml Geneticin (Life Technologies). Positive clones homozygous for the G95L knock-in were identified by PCR and sequencing of genomic DNA.
Passaging assays. Cells were seeded into 10 cm tissue culture plates at 150,000 (HeLa, NIH/3T3 and RPE1) or 200,000 cells/plate (primary fibroblasts). Compounds were added at the indicated concentrations. At 4-day intervals, cells were harvested, counted using a TC10 cell counter, and re-seeded into new plates at the densities above. Results are from 2 independent experiments.

The test system of assay [4] is HeLa cells. Description: Analysis of mitosis, HeLa centrin-GFP H2B-RFP. Format: cell-based, human. To be noted: centrosome-less HeLa cells. The protocol:
as §1

For assay [5], the target named is T1, RET (Homo sapiens, UniProt P07949).
T1 construct: Reaction Biology (Malvern, Pa.), contract assay
Description: Radiometric kinase assay, off-target RET. It counts as biochemical. To be noted: off-target from DiscoveRx kinome profiling. The protocol: Aurora B and other radiometric kinase assays were performed by Reaction Biology (Malvern, Pa.). Kinome profiling of centrinone and centrinone-B was performed by DiscoveRx (San Diego, Calif.).

Assay [6] concerns Plk4. Description: Plk4 intensity at centrosomes, HeLa. Format: cell-based, human. To be noted: 125 nM, 8 hours. From the text:
FIGS. 13A-13D. Centriole number set points arise from a dynamic equilibrium between centriole overduplication and removal of cells with extra centrioles. […] Yellow arrowheads mark centrin foci. Each frame was acquired at NEBD when the centrosomes are optimally distributed for counting. Times in the bottom left of each panel are in minutes relative to NEBD in the mother cell. Scale bar, 10 μm. (FIG. 13B) Histogram of mitotic outcomes for HeLa cells with <2, 2 or >2 centrosomes. The fates of daughter cells arising from 2-centrosome bipolar mitosis, multi-centrosome bipolar mitosis, and multi-centrosome multipolar mitosis are shown below. Data are mean+/−SD (N=2). […] Intervals are based on the time of NEBD in the mother cells. The diagonal line represents the 2:1 ratio expected under normal conditions; points above or below this line correspond to over- or under-duplication, respectively. […] Boxed regions are magnified 2.3× in panels below. Scale bar, […]. The Plk4 intensity at centrosomes was quantified and normalized to the intensity in untreated cells. Data are mean+/−SD (N=3).

In assay [7] the target is T2, human Aurora A (Homo sapiens, UniProt O14965).
T2 construct: purchased Millipore
T2 sequence (O14965 1-403): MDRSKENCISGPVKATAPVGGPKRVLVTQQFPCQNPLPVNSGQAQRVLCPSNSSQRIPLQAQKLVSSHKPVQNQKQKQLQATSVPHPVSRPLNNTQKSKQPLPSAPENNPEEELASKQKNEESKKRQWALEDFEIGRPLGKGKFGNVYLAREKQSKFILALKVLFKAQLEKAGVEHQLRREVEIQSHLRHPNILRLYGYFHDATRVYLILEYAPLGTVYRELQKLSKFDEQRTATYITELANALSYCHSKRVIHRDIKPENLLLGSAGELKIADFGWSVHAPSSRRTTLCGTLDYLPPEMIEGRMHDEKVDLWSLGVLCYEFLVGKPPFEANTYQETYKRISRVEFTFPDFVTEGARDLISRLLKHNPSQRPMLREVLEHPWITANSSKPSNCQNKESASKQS
In words: Aurora A kinase assay (ADP-Glo). Format: biochemical. The method, then:
LRRASLG)+inhibitors arrayed in dose response (added as described above). […] Detection, measurement and data analysis were performed as described above.

Assay [8] concerns NIH/3T3 cells. Description: Proliferation assay, NIH/3T3. Format: cell-based, mouse. The method, then: Proliferation assays. For each condition, cells were seeded in triplicate into 6-well plates at 50,000 cells/well. Compounds were added at the indicated concentrations. At 24-hour intervals, 3 wells were harvested per condition. Cell counting was performed using a TC10 automated cell counter (Bio-Rad). Results are from 3 independent experiments.

T1 sequence (P07949 29-1114): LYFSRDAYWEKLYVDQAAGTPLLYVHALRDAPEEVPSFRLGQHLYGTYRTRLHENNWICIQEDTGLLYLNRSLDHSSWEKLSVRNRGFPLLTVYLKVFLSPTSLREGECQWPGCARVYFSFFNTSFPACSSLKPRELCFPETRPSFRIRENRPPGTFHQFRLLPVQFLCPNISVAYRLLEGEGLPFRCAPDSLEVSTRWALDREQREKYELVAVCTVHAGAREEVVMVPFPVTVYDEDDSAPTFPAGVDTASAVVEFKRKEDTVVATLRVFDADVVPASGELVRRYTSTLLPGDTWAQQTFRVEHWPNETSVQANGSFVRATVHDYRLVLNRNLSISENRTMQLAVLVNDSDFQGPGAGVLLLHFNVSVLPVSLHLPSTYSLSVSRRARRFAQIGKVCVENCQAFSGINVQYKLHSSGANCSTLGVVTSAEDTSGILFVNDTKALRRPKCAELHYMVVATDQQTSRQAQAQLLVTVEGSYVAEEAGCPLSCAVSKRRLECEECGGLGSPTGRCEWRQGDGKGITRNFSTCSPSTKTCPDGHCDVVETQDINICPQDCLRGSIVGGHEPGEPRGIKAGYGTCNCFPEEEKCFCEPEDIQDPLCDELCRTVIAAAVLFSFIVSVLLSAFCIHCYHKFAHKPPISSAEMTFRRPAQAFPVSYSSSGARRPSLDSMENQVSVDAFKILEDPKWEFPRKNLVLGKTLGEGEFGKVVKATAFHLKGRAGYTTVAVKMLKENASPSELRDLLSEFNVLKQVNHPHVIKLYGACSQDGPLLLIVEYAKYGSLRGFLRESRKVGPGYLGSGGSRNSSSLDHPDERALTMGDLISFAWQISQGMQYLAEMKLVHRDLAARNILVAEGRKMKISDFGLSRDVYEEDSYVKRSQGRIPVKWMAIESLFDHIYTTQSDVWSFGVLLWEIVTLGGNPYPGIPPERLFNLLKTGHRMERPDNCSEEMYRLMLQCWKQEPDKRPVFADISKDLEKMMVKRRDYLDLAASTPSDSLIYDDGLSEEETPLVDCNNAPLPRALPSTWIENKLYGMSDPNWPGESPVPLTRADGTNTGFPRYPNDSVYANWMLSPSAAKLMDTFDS

As to `COc1c(Nc2cc(C)[nH]n2)nc(Sc2ccc(S(=O)(=O)Cc3cccc([N+](=O)[O-])c3F)cc2F)nc1N1CCOCC1` [Centrinone, 2-((2-fluoro-4-((2-fluoro-3-nitrobenzyl)sulfonyl)phenyl)thio)-5-methoxy-N-(5-methyl-1H-pyrazol-3-yl)-6-morpholinopyrimidin-4-amine], the “increase in mitotic duration” value in assay [1] is roughly 20 min; in assay [4] it was roughly 1 h. For the same compound, in assay [2] (HeLa (also BT549, N1E-115-1)), the “centrosome number directly after washout from long-term treated cells” value is recorded as “initial wave of centrosome overduplication”. In addition, in assay [2] (HeLa, 10 days following washout), the “centrosome numbers after washout” value is recorded as “all cells exhibited normal centrosome numbers”. Further, the “foci of centriolar and pericentriolar material markers” value is “loss of all markers from cells” in assay [2] (HeLa) and “most cells lacked centrioles/centrosomes” in assay [2] (HeLa, listed as centrinone). For the same compound, in assay [3], the “centrosome loss and proliferation” value was “did not lead to centrosome loss or proliferation arrest”. For the same compound, the “cells undergoing persistent mitotic arrest” value in assay [4] is 24%. For the same compound, the inhibition constant Ki (usually the dissociation constant of the complex between target and ligand, obtained from inhibition or displacement) was determined as 13.9 nM in assay [5] and 171 nM in assay [7]. Further, the “Plk4 level at the centrosome” value in assay [6] was “double”. For the same compound, the proliferation versus controls entry in assay [8] (NIH/3T3, first two days after addition) was “identical to controls”. Moreover, the “cell death per generation explaining reduced proliferation rate” value in assay [8] (centrosome-less NIH/3T3, theoretical curves versus measurements) worked out at 15%.

(Values after patent publication US10752612B2, “PLK4 inhibitors” (LUDWIG INSTITUTE FOR CANCER RESEARCH LTD, priority 2015, dated 2020).)
